Test results as given in patent US8030336B2, “Nicotinamide-based kinase inhibitors” (YM Biosciences Australia Pty Ltd, priority 2002, dated 2011).

Experiments:
Format in all cases: biochemical
hck = hck (Homo sapiens, UniProt P08631); experiment: hck kinase assay (ELISA or Alphascreen); details: read-out: hck inhibition of enzyme activity
Method in brief: (§1)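 Affinity-purified PTK domain (~1.5 μg) phosphorylated biotinylated peptide (5 μM final) in 50 mM HEPES pH 7.5, 10 mM MgCl2, 150 mM NaCl, 10 μM-1 mM ATP. Phosphotyrosine read by PY20 ELISA or Alphascreen.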

human JAK2 = target: T1, human JAK2 (Homo sapiens, UniProt O60674); experiment: JAK2 kinase assay (ELISA or Alphascreen); details: read-out: Jak2 inhibition of enzyme activity
T1 construct: The kinase domain of human JAK2 was amplified from U937mRNA; His tag (from the pFastBac HTc vector) (N); made in house; host or cells: baculovirus; Sf9 for virus, High Five insect cells for production
T1 sequence (O60674 849-1124 limits assumed): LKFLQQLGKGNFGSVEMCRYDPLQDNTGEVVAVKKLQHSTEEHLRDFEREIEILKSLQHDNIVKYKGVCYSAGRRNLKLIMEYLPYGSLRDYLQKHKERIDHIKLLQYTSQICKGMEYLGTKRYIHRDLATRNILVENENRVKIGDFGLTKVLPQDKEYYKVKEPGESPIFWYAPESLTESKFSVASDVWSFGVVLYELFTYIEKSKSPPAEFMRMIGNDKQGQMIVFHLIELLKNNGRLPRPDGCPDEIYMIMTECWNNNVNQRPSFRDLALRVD
Method in brief: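 His-tagged human JAK2 kinase domain from baculovirus-infected insect cells, ~1.5 μg per assay, in 50 mM HEPES pH 7.5, 10 mM MgCl2, 150 mM NaCl, with 10 μM–1 mM ATP and 5 μM biotinylated peptide substrate. Phosphotyrosine detected by PY20 ELISA or AlphaScreen.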

abl = target: T2, abl (Homo sapiens, UniProt P00519); experiment: abl kinase assay (ELISA or Alphascreen); details: read-out: abl inhibition of enzyme activity
T2 sequence (P00519 242-493 limits assumed): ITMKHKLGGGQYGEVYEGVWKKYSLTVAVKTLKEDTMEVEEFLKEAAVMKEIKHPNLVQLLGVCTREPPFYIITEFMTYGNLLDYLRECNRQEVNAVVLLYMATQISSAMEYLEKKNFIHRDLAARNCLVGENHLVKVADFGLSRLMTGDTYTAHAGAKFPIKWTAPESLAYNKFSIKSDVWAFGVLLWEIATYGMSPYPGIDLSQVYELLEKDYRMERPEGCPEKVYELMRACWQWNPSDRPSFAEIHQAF
Method in brief: as §1

human JAK3 = target: T3, human JAK3 (Homo sapiens, UniProt P52333); experiment: JAK3 kinase assay (ELISA or Alphascreen); details: read-out: Jak3 inhibition of enzyme activity
T3 construct: The kinase domain of human JAK3 was amplified from U937mRNA; His tag (from the pFastBac HTb vector) (N); made in house; host or cells: baculovirus; Sf9 for virus, High Five insect cells for production
T3 sequence (P52333 822-1111 limits assumed): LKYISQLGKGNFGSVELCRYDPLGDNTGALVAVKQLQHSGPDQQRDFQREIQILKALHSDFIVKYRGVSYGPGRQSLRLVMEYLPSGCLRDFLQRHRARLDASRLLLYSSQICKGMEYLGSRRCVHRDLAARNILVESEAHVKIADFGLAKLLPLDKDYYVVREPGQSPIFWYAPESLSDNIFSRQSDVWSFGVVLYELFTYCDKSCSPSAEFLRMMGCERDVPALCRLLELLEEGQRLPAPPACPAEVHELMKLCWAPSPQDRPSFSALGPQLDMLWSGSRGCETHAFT
Method in brief: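 His-tagged human JAK3 kinase domain from High Five cells, ~1.5 μg per assay, in 50 mM HEPES pH 7.5, 10 mM MgCl2, 150 mM NaCl, 10 μM-1 mM ATP, 5 μM biotinylated peptide substrate. Phosphotyrosine by PY20 ELISA or Alphascreen.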

Zap70 = target: T4, Zap70 (Homo sapiens, UniProt P43403); experiment: Zap70 kinase assay (ELISA or Alphascreen); details: read-out: Zap70 inhibition of enzyme activity
T4 sequence (P43403 338-600 limits assumed): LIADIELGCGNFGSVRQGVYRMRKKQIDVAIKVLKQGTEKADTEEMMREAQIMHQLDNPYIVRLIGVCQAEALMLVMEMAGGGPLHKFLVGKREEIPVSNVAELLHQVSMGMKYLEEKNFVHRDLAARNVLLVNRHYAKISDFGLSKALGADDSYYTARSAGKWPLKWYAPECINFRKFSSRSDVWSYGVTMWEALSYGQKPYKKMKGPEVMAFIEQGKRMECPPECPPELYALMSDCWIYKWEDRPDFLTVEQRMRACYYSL
Method in brief: as §1

fms = target: T5, fms (Homo sapiens, UniProt P07333); experiment: fms kinase assay (ELISA or Alphascreen); details: read-out: fms inhibition of enzyme activity
T5 sequence (P07333 582-910 limits assumed): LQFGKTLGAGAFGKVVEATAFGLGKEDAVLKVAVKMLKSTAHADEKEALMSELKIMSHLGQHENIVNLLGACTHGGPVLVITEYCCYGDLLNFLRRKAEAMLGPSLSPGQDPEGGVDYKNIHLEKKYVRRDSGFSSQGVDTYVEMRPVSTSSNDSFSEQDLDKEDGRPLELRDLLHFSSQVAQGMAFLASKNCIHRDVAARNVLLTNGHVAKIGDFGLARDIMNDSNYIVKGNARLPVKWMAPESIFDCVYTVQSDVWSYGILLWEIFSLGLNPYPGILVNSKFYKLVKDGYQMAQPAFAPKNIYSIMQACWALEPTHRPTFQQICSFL
Method in brief: as §1

fes = fes (Homo sapiens, UniProt P07332); experiment: fes kinase assay (ELISA or Alphascreen); details: read-out: fes inhibition of enzyme activity
Sequence of fes (P07332 561-822 limits assumed, species assumed): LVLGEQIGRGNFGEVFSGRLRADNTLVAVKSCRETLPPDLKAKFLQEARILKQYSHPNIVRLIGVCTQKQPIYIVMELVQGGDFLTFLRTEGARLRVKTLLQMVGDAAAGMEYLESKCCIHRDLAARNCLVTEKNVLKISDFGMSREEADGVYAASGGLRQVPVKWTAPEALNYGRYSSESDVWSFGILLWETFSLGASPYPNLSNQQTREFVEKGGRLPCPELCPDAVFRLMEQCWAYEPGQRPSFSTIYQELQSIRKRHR
Method in brief: as §1

Sequence of hck (P08631 262-515 limits assumed, species assumed): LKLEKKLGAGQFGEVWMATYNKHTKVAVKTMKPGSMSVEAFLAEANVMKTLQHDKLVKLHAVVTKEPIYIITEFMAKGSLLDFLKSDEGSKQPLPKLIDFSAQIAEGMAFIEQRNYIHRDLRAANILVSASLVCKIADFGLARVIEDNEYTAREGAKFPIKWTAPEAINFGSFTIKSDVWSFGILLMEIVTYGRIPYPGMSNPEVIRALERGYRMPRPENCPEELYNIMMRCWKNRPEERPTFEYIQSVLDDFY

| inhibition at 10 µM (hck) [%] | inhibition at 10 µM (human JAK2) [%] | inhibition at 10 µM (abl) [%] | inhibition at 10 µM (human JAK3) [%] | inhibition at 10 µM (Zap70) [%] | inhibition at 10 µM (fms) [%] | inhibition at 10 µM (fes) [%] | SMILES |
| --- | --- | --- | --- | --- | --- | --- | --- |
| ≥ 50 | < 50 | ≥ 50 | < 50 | < 50 | < 50 | < 50 | COc1cc(-c2cncc(C(=O)Nc3ccc(F)cc3C)c2)ccc1O |
| < 50 | < 50 | < 50 | < 50 | ≥ 50 | < 50 | < 50 | COc1cccc([C@H](C)NC(=O)c2cncc(-c3ccc(F)cc3)c2)c1 |
| < 50 | < 50 | < 50 | < 50 | < 50 | < 50 | < 50 | Cc1ccc(F)cc1NC(=O)c1cncc(-c2ccc3c(c2)OCO3)c1 |
| ≥ 50 | < 50 | < 50 | < 50 | < 50 | ≥ 50 | < 50 | COc1cc(-c2cncc(C(=O)Nc3cc(F)ccc3C)c2)c(Cl)c(OC)c1OC |
| < 50 | < 50 | < 50 | < 50 | < 50 | < 50 | ≥ 50 | CN(Cc1ccccc1)C(=O)c1cncc(-c2cccs2)c1 |
| < 50 | ≥ 50 | < 50 | ≥ 50 | < 50 | ≥ 50 | < 50 | COc1ccc(NC(=O)c2cncc(-c3cccnc3)c2)c(OC)c1 |
| < 50 | < 50 | < 50 | < 50 | ≥ 50 | < 50 | < 50 | COc1cccc(-c2cncc(C(=O)NCCc3ccccc3)c2)c1 |
